According to patent US10265327B2, “V1A antagonists to treat phase shift sleep disorders” (Hoffmann-La Roche Inc., priority 2013, dated 2019):

System: C57BL/6J mice
Experiment: Behavioural circadian responses (phase shift, period, alpha, locomotor activity) after single oral administration, release into constant darkness
Format: in vivo, mouse
Method: In all studies described below, male young-adult C57BL/6J mice (4 weeks old at the beginning of experiments) were used. Animals were exposed to a light-dark cycle (LD) 12:12 (lights on from 8 h to 20 h geographical time; light intensity at 200 lux; during dark period dim red light of 5 lux) in individual cages with food and water ad libitum and temperature (22±1° C.) and humidity (55%±5%) controlled. LD cycle was represented as zeitgeber times (ZT) where ZT0 represents the lights on and ZT12 lights off. When animals were exposed to constant darkness conditions (DD), circadian times (CT) were used as time point references, where CT12 corresponds to activity onset.
It was evaluated whether there is a phase window of sensitivity to the V1a receptor antagonist trans-8-chloro-5-methyl-1-(4-pyridin-2-yloxycyclohexyl)-4,6-dihydro-[1,2,4]triazolo[4,3-a][1,4]benzodiazepine (example 1). A group of animals was treated at 2 temporal points (one during the day and one at night). Animals were exposed to LD cycle conditions (at least for 10 days) to obtain a baseline of the rhythm of locomotor activity. 4 groups were selected: (group 1) Sham manipulations, animals into which the cannula was introduced in the oral cavity without any solution delivery; (group 2) vehicle, and […] administration of the V1a receptor antagonist trans-8-chloro-5-methyl-1-(4-pyridin-2-yloxycyclohexyl)-4,6-dihydro-[1,2,4]triazolo[4,3-a][1,4]benzodiazepine (doses of 10 mg/kg and 30 mg/kg). Administrations were performed (orally) at ZT/CT12 (lights off/activity onset; sham, n=5; vehicle n=5; 10 mg/kg n=5; and 30 mg/kg n=5). After the first manipulation at ZT/CT12, animals were immediately exposed to DD conditions and remained at least for 10 days more for behavioural analysis, and then re-entrained to a 12-12 LD cycle, for a minimum of 10 days, to be re-exposed to the second experimental manipulation at ZT/CT0 (lights on/activity offset; sham, n=3; vehicle n=3; 10 mg/kg n=5; and 30 mg/kg n=5).
A new group of animals was treated at another 2 temporal points different from the previous experiment; ZT/CT6 (6 h after lights on/mid rest period; sham, n=3; vehicle n=4; and 30 mg/kg n=5) and ZT/CT18 (6 h after lights off/mid activity period; sham, n=3; vehicle n=4; and 30 mg/kg n=5). For this experiment (time points ZT/CT6 and ZT/CT18), trans-8-chloro-5-methyl-1-(4-pyridin-2-yloxycyclohexyl)-4,6-dihydro-[1,2,4]triazolo[4,3-a][1,4]benzodiazepine was administrated only at the 30 mg/kg dose. Thus, 3 groups were selected: (Group 1) Sham manipulations, (Group 2) vehicle administrations and (Group 3) trans-8-chloro-5-methyl-1-(4-pyridin-2-yloxycyclohexyl)-4,6-dihydro-[1,2,4]triazolo[4,3-a][1,4]benzodiazepine (30 mg/kg). After manipulations, animals were immediately exposed to DD conditions and remained at least for 10 days more for behavioural analysis, and then re-entrained to a 12-12 LD cycle for a minimum of 10 days.
The locomotor activity rhythms were measured using infra-red detectors on the top of the cages and/or running wheels.
Phase shifts: Phase shifts were measured by fitting two regression lines to the onsets of locomotor activity for 10 days before and 10 days after the manipulation (ClockLab; Actimetrics, Evanston, Ill., USA). A computer algorithm was used to identify the onset of the main period of daily locomotor activity (ClockLab). The data collected on the day following the manipulation (sham, vehicle or drug administration) was excluded from the line fits to ensure that the circadian phase was in steady state. Phase shift was defined as the difference (in hours) between the pre-stimulus line and the post-stimulus line. The magnitude of the phase shifts was fitted by linear regression to the onsets, considering 10 cycles before (LD) and 10 cycles after compound administration when animals were released in constant darkness (DD; Aschoff Type II procedure to evaluate phase shifts; Mrosovsky, 1996b). […]

CN1Cc2cc(Cl)ccc2-n2c(nnc2[C@H]2CC[C@H](Oc3ccccn3)CC2)C1 [Example 1, trans-8-chloro-5-methyl-1-(4-pyridin-2-yloxycyclohexyl)-4,6-dihydro-[1,2,4]triazolo[4,3-a][1,4]benzodiazepine]
locomotor activity change after administration (10 mg/kg or 30 mg/kg oral, ZT/CT12 and ZT/CT0): No significant locomotor activity change | endogenous period of locomotor activity (10 mg/kg or 30 mg/kg oral, ZT/CT12 and ZT/CT0, constant darkness): no changes | endogenous period of locomotion (30 mg/kg oral, ZT/CT18 and ZT/CT6): not significantly different between groups | alpha (duration of active period), difference between groups (30 mg/kg oral, ZT/CT18 or ZT/CT6): no differences between groups were observed | behavioural phase shifts (circadian phase) (single administration 30 mg/kg oral, at ZT/CT18 and ZT/CT6): no significant effect on the circadian phase | behavioural phase-shifts (circadian phase) (single oral administration, 10 mg/kg or 30 mg/kg, at ZT/CT12 and ZT/CT0): no effect on the circadian phase | alpha increase (pre vs. post) (treated at ZT/CT0, 10 and 30 mg/kg oral, effect vs groups not statistically significant): ~2 h | alpha (duration of active period), difference between groups (treated at ZT/CT12, 10 and 30 mg/kg oral): no differences between groups were observed
